The source of these data is patent US10150748B2, “Salt or abexinostat, associated crystalline form, a process for their preparation and pharmaceutical compositions containing them” (Pharmacyclics LLC, priority 2013, dated 2018).

The series in a line: Hygroscopicity by dynamic vapor sorption (DVS). It counts as physicochemical. The conditions noted are these: relative humidities from 0% to 90% at 25° C. As for the experimental part: Hygroscopicity of form I of abexinostat tosylate was assessed using dynamic vapor sorption (DVS) technique. 5 to 10 mg of the drug substance test sample were accurately weighed into a DVS sample pan working at 25° C. under controlled humidity. The mass variation was recorded whilst drying under 0 percent RH (relative humidity) and during two subsequent cycles of increasing and decreasing linear variations of relative humidity in the range 0-90 percent RH at a rate of 10 percent per hour. The relative humidity was maintained constant when it reached either 0 or 90 percent RH until the mass variation was less than 0.002 percent, per minute within a limit of time of 15 h.

On to `CN(C)Cc1c(C(=O)NCCOc2ccc(C(=O)NO)cc2)oc2ccccc12.Cc1ccc(S(=O)(=O)O)cc1` [form I of abexinostat tosylate, N-hydroxy-4-{2-[3-(N,N-dimethylaminomethyl)benzofuran-2-ylcarbonylamino]ethoxy}benzamide tosylate], for which the “increase in weight detected by DVS analysis” value is given as “lower than 0.5%”.
